Holding throughout (format): cell-based
For assay [1], the system named is DMS-53 cells. In words: CTG Assay (CellTiter-Glo Luminescent Cell Viability Assay), DMS-53. The note with it: Homo sapiens. The protocol: (§1) Cell proliferation was measured using the CellTiter-Glo® Luminescent Cell Viability Assay. The assay involved the addition of a single reagent (CellTiter-Glo® Reagent) directly to cells cultured in serum-supplemented medium. DMS-53 (ATCC, CRL-2062), MV4-11 (ATCC, CRL-9591), MCF-7 (ATCC, HTB-22) and ZR-75-1 (ATCC, CRL-1500) cells were cultured according to ATCC recommendations and were seeded at 20,000 cells per well.
(§2) Each compound evaluated was prepared as a DMSO stock solution (10 mM). For DMS-53 and MV4-11 cell lines, Compounds 1 and 5a were tested in triplicate using the respective IC50 concentrations indicated in Table 2. The MCF-7 combination assay was performed in duplicate with a 10-point serial dilution curve (1:3 dilution) for Compounds 1 and 5a, and a 10-point serial dilution curve (1:5 dilution) when treated in combination. The highest compound concentration was 10 μM with a 0.1% final DMSO concentration. Plates were incubated at 37° C., 5% CO2 for 72 h and then equilibrated at room temperature for approximately 30 min. […] Luminescence (RLU (relative light unit)) was recorded using a SpectraMAX, M5e plate reader according to CellTiter-Glo protocol. Percent inhibition was calculated using the following formula: % inhibition=(RLU*100/(RLU of the cell background)). IC50 of each compound was calculated using GraphPad Prism by nonlinear regression analysis.
(In general: In ATP-based viability assays light output follows the ATP content of the culture.)

The test system of assay [2] is MV4-11 cells. In words: CTG Assay (CellTiter-Glo Luminescent Cell Viability Assay), MV4-11. The note with it: Homo sapiens. The protocol:
as §1, §2

Assay [3] relates to ZR-75-1 breast cancer cells. In words: CTG Assay (CellTiter-Glo Luminescent Cell Viability Assay), ZR-75-1. Particulars: Homo sapiens, 72 h. As to the method:
as §1, §2

Assay [4] deals with MCF-7 breast cancer cells. In words: CTG Assay (CellTiter-Glo Luminescent Cell Viability Assay), MCF-7 combination assay. Particulars: Homo sapiens, MCF7, 72 h, 10-point dilution, top 10 μM. As to the method:
as §1, §2

[5] abbreviates: single agent, IC50 used as test concentration, read-out: Concentration (respective IC50 concentration).
The mark [6] stands for this setting: read-out: Absolute IC50 Based on % Inhibition.
The mark [7] stands for this setting: read-out: Relative IC50 Based on % Inhibition.

Data on one molecule can be found in patent publication US20230065577A1, “COMBINATIONS” (Recurium IP Holdings, LLC, priority 2019, published 2023).

Where two headings read alike, the source gives them in different places.

As a reminder, the inhibition is the percentage by which the read-out fell short of the control. For `C=CCn1c(=O)c2cnc(Nc3ccc(N4CCN(C)CC4)cc3)nc2n1-c1cccc(C(C)(C)O)n1` [Compound 1], the inhibition at 0.65 µM in assay [1] (650 nM, 72 h, triplicate) worked out at 37%. The IC50 in assay [1] (setting [5]) was 650 nM; in assay [2] (setting [5]), 15 nM; in assay [3] (setting [6]), 1770 nM; in assay [3] (setting [7]), 1240 nM; in assay [4] (setting [6]), 346 nM; in assay [4] (setting [7]) it was 307 nM. In addition, in assay [2] (15 nM, 72 h, triplicate), the inhibition at 0.015 µM came out at 37%.
